Data published in US20260042731A1, “(2,4-DICHLOROPHENOXY)ACETIC ACID ANALOGS” (CORTEVA AGRISCIENCE LLC, priority 2022, published 2026).
Read-outs that look alike come from different tables or passages of the source.

Columns and labels:
[1] = system: Chenopodium album (CHEAL), common lambsquarters; test: Postemergence herbicide evaluation, growth of Chenopodium album (CHEAL); type: in vivo; settings: Chenopodium album, post-emergence, read-out: Ave. CHEAL, percent reduction in plant size relative to the untreated control; for pest or weed control at 280 g/ha: 280 g ae/ha; for pest or weed control at 560 g/ha: 560 g ae/ha
[2] = system: Amaranthus rudis (AMATA), tall water hemp; test: Postemergence herbicide evaluation, growth of Amaranthus rudis (AMATA); type: in vivo; settings: Amaranthus tuberculatus, post-emergence, read-out: Ave. AMATA, percent reduction in plant size relative to the untreated control; for pest or weed control at 280 g/ha: 280 g ae/ha; for pest or weed control at 560 g/ha: 560 g ae/ha
[3] = Volatility of compounds measured by thermogravimetric analysis (TGA); type: physicochemical
[4] = system: Abutilon theophrasti (ABUTH), velvetleaf; test: Postemergence herbicide evaluation, growth of Abutilon theophrasti (ABUTH); type: in vivo; settings: Abutilon theophrasti, post-emergence, read-out: AVE. ABUTH, percent reduction in plant size relative to the untreated control; for pest or weed control at 280 g/ha: 280 g ae/ha; for pest or weed control at 560 g/ha: 560 g ae/ha
[5] = system: Ambrosia artemisiifolia (AMBEL), common ragweed; test: Postemergence herbicide evaluation, growth of Ambrosia artemisiifolia (AMBEL); type: in vivo; settings: Ambrosia artemisiifolia, post-emergence, read-out: AVE. AMBEL, percent reduction in plant size relative to the untreated control; for pest or weed control at 280 g/ha: 280 g ae/ha; for pest or weed control at 560 g/ha: 560 g ae/ha
[6] = system: glyphosate resistant Conyza canadensis (L.) (ERICA), horseweed; test: Postemergence herbicide evaluation, growth of Conyza canadensis (ERICA); type: in vivo; settings: Erigeron canadensis, post-emergence, read-out: Ave. ERICA, percent reduction in plant size relative to the untreated control; for pest or weed control at 280 g/ha: 280 g ae/ha; for pest or weed control at 560 g/ha: 560 g ae/ha
[7] = system: weeds ABUTH, AMATA, AMBEL, CHEAL, ERICA; test: Postemergence herbicide evaluation, overall average % weed control (ABUTH, AMATA, AMBEL, CHEAL, ERICA); type: in vivo; settings: post-emergence, read-out: Overall Ave % Weed Control; for pest or weed control at 280 g/ha: 280 g ae/ha; for pest or weed control at 560 g/ha: 560 g ae/ha

Structure (SMILES) | pest or weed control at 280 g/ha ([1]; 168 h, 7 DAA) | pest or weed control at 560 g/ha ([1]; 168 h, 7 DAA) | pest or weed control at 280 g/ha ([1]; 336 h, 14 DAA) | pest or weed control at 560 g/ha ([1]; 336 h, 14 DAA) | pest or weed control at 280 g/ha ([1]; 504 h, 21 DAA) | pest or weed control at 560 g/ha ([1]; 504 h, 21 DAA) | pest or weed control at 280 g/ha ([2]; 168 h, 7 DAA) | pest or weed control at 560 g/ha ([2]; 168 h, 7 DAA) | pest or weed control at 280 g/ha ([2]; 336 h, 14 DAA) | pest or weed control at 560 g/ha ([2]; 336 h, 14 DAA) | pest or weed control at 280 g/ha ([2]; 504 h, 21 DAA) | pest or weed control at 560 g/ha ([2]; 504 h, 21 DAA) | TGA Data (rate of weight loss, volatility) [3] | pest or weed control at 280 g/ha ([4]; 168 h, 7 DAA) | pest or weed control at 560 g/ha ([4]; 168 h, 7 DAA) | pest or weed control at 280 g/ha ([4]; 336 h, 14 DAA) | pest or weed control at 560 g/ha ([4]; 336 h, 14 DAA) | pest or weed control at 280 g/ha ([4]; 504 h, 21 DAA) | pest or weed control at 560 g/ha ([4]; 504 h, 21 DAA) | pest or weed control at 280 g/ha ([5]; 168 h, 7 DAA) | further results
O=C(COc1ccc(Cl)cc1Cl)O/N=C/c1ccccc1 [Compound A2, (E)-benzaldehyde O-(2-(2,4-dichlorophenoxy)acetyl) oxime] | 70% | 73% | 70% | 85% | 73% | 87% | 68% | 75% | 70% | 88% | 73% | 87% | 0.8 µg/min | 85% | 85% | 94% | 96% | 98% | 96% | 65% | pest or weed control at 560 g/ha ([5]; 168 h, 7 DAA): 73%; pest or weed control at 280 g/ha ([5]; 336 h, 14 DAA): 92%; pest or weed control at 560 g/ha ([5]; 336 h, 14 DAA): 96%; pest or weed control at 280 g/ha ([5]; 504 h, 21 DAA): 91%; pest or weed control at 560 g/ha ([5]; 504 h, 21 DAA): 100%; pest or weed control at 280 g/ha ([6]; 168 h, 7 DAA): 68%; pest or weed control at 560 g/ha ([6]; 168 h, 7 DAA): 73%; pest or weed control at 280 g/ha ([6]; 336 h, 14 DAA): 93%; pest or weed control at 560 g/ha ([6]; 336 h, 14 DAA): 85%; pest or weed control at 280 g/ha ([6]; 504 h, 21 DAA): 90%; pest or weed control at 560 g/ha ([6]; 504 h, 21 DAA): 98%; pest or weed control at 280 g/ha ([7]; 168 h, 7 DAA): 71%; pest or weed control at 560 g/ha ([7]; 168 h, 7 DAA): 76%; pest or weed control at 280 g/ha ([7]; 336 h, 14 DAA): 84%; pest or weed control at 560 g/ha ([7]; 336 h, 14 DAA): 90%; pest or weed control at 280 g/ha ([7]; 504 h, 21 DAA): 87%; pest or weed control at 560 g/ha ([7]; 504 h, 21 DAA): 93%
N/C(=N\OC(=O)COc1ccc(Cl)cc1Cl)c1ccccc1 [Compound A3, N′-(2-(2,4-Dichlorophenoxy)acetoxy)benzimidamide] | 75% | 68% | 83% | 83% | 85% | 87% | 75% | 78% | 75% | 90% | 83% | 70% | 1 µg/min | 53% | 68% | 55% | 68% | 58% | 72% | 63% | pest or weed control at 560 g/ha ([5]; 168 h, 7 DAA): 75%; pest or weed control at 280 g/ha ([5]; 336 h, 14 DAA): 78%; pest or weed control at 560 g/ha ([5]; 336 h, 14 DAA): 95%; pest or weed control at 280 g/ha ([5]; 504 h, 21 DAA): 90%; pest or weed control at 560 g/ha ([5]; 504 h, 21 DAA): 90%; pest or weed control at 280 g/ha ([6]; 168 h, 7 DAA): 68%; pest or weed control at 560 g/ha ([6]; 168 h, 7 DAA): 75%; pest or weed control at 280 g/ha ([6]; 336 h, 14 DAA): 85%; pest or weed control at 560 g/ha ([6]; 336 h, 14 DAA): 90%; pest or weed control at 280 g/ha ([6]; 504 h, 21 DAA): 90%; pest or weed control at 560 g/ha ([6]; 504 h, 21 DAA): 95%; pest or weed control at 280 g/ha ([7]; 168 h, 7 DAA): 67%; pest or weed control at 560 g/ha ([7]; 168 h, 7 DAA): 73%; pest or weed control at 280 g/ha ([7]; 336 h, 14 DAA): 75%; pest or weed control at 560 g/ha ([7]; 336 h, 14 DAA): 85%; pest or weed control at 280 g/ha ([7]; 504 h, 21 DAA): 81%; pest or weed control at 560 g/ha ([7]; 504 h, 21 DAA): 83%
N/C(=N\OC(=O)COc1ccc(Cl)cc1Cl)c1cccnc1 [Compound A4, N′-(2-(2,4-Dichlorophenoxy)acetoxy)nicotinimidamide] | 60% | 68% | 63% | 75% | 63% | 83% | 75% | 60% | 75% | 73% | 70% | 75% | 1 µg/min | 35% | 50% | 40% | 58% | 38% | 53% | 60% | pest or weed control at 560 g/ha ([5]; 168 h, 7 DAA): 68%; pest or weed control at 280 g/ha ([5]; 336 h, 14 DAA): 78%; pest or weed control at 560 g/ha ([5]; 336 h, 14 DAA): 88%; pest or weed control at 280 g/ha ([5]; 504 h, 21 DAA): 88%; pest or weed control at 560 g/ha ([5]; 504 h, 21 DAA): 85%; pest or weed control at 280 g/ha ([6]; 168 h, 7 DAA): 60%; pest or weed control at 560 g/ha ([6]; 168 h, 7 DAA): 65%; pest or weed control at 280 g/ha ([6]; 336 h, 14 DAA): 83%; pest or weed control at 560 g/ha ([6]; 336 h, 14 DAA): 85%; pest or weed control at 280 g/ha ([6]; 504 h, 21 DAA): 88%; pest or weed control at 560 g/ha ([6]; 504 h, 21 DAA): 88%; pest or weed control at 280 g/ha ([7]; 168 h, 7 DAA): 58%; pest or weed control at 560 g/ha ([7]; 168 h, 7 DAA): 62%; pest or weed control at 280 g/ha ([7]; 336 h, 14 DAA): 68%; pest or weed control at 560 g/ha ([7]; 336 h, 14 DAA): 76%; pest or weed control at 280 g/ha ([7]; 504 h, 21 DAA): 69%; pest or weed control at 560 g/ha ([7]; 504 h, 21 DAA): 77%
